# Laboratory results as given in article PMC7887271, “Fast acting allosteric phosphofructokinase inhibitors block trypanosome glycolysis and cure acute African trypanosomiasis in mice” (Nature Communications, 2021).
# “And” between values parts separate entries of the source, which are not always exact repeats. Equal values may be shown once. Read-outs that look alike come from different tables or passages of the source.
# Columns and labels:
# HepG2 cells = experiment: HepG2 cytotoxicity assay; type: cell-based, human
# Protocol: (§1) A HepG2 cytotoxicity assay was used to determine a cellular selectivity index. HepG2 cells were seeded into 96-well plates in EMEM medium. Compounds were assessed for their effect upon cellular viability (Supplementary Methods 5.1). Inhibition of CYP450 was determined using kits from BD Biosciences (Supplementary Methods 5.2). Metabolic stability was determined using mouse […] tested at a single concentration of 5 µM. Plasma protein binding was determined using mouse and human plasma at a single concentration of 10 µM (Supplementary Methods 5.4). All PK studies in mice were carried out by Pharmidex (Supplementary Methods 6.1).
# To determine a cellular selectivity index, a HepG2 Cytotoxicity Assay was used. HepG2 cells (a human hepatocyte carcinoma cell line) were seeded into 96 well plates in EMEM media. Compounds were assessed for their effect upon cellular viability (6 point dose response curves). After 72h the numbers of viable cells were detected using Promega CellTitreGlo reagent to measure ATP using the luciferase/luciferin detection system. The selectivity index is calculated as the EC50 in the HepG2 assay divided by the EC50 determined in the T. b. brucei parasite killing assay.
# [1] = Metabolic stability, mouse liver microsomes; type: in vitro ADME; details: read-out: MLM Clint
# Protocol: as §1
# (§2) Compounds were tested for their metabolic stability using mouse and human liver microsomes (MLM and HLM). The compounds were tested at a single concentration of 5 µM. The samples were crashed with acetonitrile and put through protein precipitation plates. The eluent was analysed by LC/MS or LC/MS/MS.
# [2] = Metabolic stability, human liver microsomes; type: in vitro ADME; details: read-out: HLM Clint
# Protocol: as §1, §2
# Human hERG = Human hERG (Homo sapiens, UniProt Q12809); experiment: Human hERG inhibition
# Chain of Human hERG (Q12809 whole entry): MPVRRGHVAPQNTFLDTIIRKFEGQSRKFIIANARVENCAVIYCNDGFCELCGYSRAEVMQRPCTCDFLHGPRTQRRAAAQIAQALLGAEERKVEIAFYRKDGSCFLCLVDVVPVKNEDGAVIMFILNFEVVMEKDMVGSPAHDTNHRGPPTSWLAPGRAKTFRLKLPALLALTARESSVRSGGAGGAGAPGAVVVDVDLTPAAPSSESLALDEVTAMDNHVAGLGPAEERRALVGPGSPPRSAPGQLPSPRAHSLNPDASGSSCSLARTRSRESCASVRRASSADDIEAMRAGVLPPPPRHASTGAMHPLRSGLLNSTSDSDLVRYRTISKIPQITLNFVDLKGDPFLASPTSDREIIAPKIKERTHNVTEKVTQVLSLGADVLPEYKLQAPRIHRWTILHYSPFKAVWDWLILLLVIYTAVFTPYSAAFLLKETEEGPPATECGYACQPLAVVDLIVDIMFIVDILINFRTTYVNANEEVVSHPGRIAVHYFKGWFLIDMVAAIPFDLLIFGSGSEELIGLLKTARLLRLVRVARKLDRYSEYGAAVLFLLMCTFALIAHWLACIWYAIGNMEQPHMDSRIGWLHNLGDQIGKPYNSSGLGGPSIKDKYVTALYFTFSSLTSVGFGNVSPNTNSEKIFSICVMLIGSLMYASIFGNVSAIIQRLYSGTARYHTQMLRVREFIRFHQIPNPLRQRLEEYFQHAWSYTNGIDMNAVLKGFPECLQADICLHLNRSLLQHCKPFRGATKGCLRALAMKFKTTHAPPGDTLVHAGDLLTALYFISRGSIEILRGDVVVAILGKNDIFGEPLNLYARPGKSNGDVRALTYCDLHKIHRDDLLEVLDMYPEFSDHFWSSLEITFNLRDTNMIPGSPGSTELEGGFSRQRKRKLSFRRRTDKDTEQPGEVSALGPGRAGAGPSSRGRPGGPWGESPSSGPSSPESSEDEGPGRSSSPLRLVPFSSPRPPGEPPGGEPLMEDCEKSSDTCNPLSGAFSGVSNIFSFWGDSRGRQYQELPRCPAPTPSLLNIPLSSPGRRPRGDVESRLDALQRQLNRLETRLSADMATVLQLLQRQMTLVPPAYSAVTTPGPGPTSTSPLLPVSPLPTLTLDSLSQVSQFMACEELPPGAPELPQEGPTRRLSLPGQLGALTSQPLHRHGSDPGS
# From the text: Methods are described in Supplementary Methods 5 and 6. Enzyme assay results are means ± SD in multiple assays. ADME results are averages of n = 2 or 3 measurements in individual assays.
# [3] = Plasma protein binding, human plasma; type: in vitro ADME; details: equilibrium dialysis, read-out: Human plasma protein binding fu(%)
# Protocol: as §1
# (§3) Compounds were tested for protein binding using mouse and human plasma at a single concentration of 10 µM and measured by equilibrium dialysis between plasma and buffer. The amount of parent was determined on both sides of the membrane after incubating for 4 hours at 37 °C. The samples were crashed with acetonitrile and put through protein precipitation plates. The eluent was analysed by LC/MS or LC/MS/MS. Output was percentage bound.
# [4] = Plasma protein binding, mouse plasma; type: in vitro ADME
# Protocol: as §1, §3
# [5] = Pharmacokinetic studies in mice (IV and PO); type: in vivo, female CD-1 mice; details: for AUC(0-inf): read-out: AUC (infinity)
# Protocol: PK parameters for the lead compounds were determined using three mice per data point (Supplementary Methods 6.1).
# Blood samples were collected from terminal cardiac puncture at 0.08 (IV only), 0.25, 0.5, 1 (PO only), 2, 4, 8 and 24 hour time points. The whole blood was centrifuged to obtain plasma. Brains were also collected following cardiac perfusion from both sets of animals at 2 hours. Analysis of the biological samples was carried out by the company Selcia. Plasma proteins were precipitated by addition of PBS (1 volume) followed by 3 volumes of acetonitrile containing internal standard (verapamil). Following filtration through a protein precipitation plate the eluent was dried under nitrogen and re-suspended in mobile phase prior to analysis. Individual brains were homogenised in PBS and diluted to 10% w/v and divided into aliquots consisting of brain homogenate (1 volume, 0.3 ml) and 3 volumes (0.9 ml) of acetonitrile containing internal standard. Samples were centrifuged and supernatants removed and taken through a protein precipitation plate alongside an appropriate standard. Eluents were dried under nitrogen and re-suspended in mobile phase prior to analysis. Eluents were analysed by LC-MS/MS using a Phenomenex Gemini NX column (C18,30 x 2.1 mm, 3 micron). Analysis of the data was carried out using PK solutions software.
# [6] = Tolerance studies and plasma levels after multiple oral dosing; type: in vivo; details: for Experimental plasma concentration measured @2hr after final dose: 2 h intervals
# Protocol: All efficacy studies were carried out using CD-1 mice in accordance with the United Kingdom Animals (Scientific Procedures) Act (1986) under Home Office regulations. Studies were performed in SPF facilities at the University of Edinburgh under licence PPL 70/8102 and at the University of Glasgow under PPL 60/4442. The experiments were approved by the local ethics committees of the respective universities. Dosing regimens used in efficacy studies were first tested for tolerance in female CD-1 mice (University of Edinburgh; 6–8 weeks old). Animals were dosed orally by gavage with CTCB compounds following the dosing regimen for each individual experiment (n = 5; Supplementary Methods 6.2).
# Dosing regimens used in efficacy studies were first tested for tolerance in female CD-1 mice (University of Edinburgh; 6-8 weeks old). Animals were dosed orally by gavage with CTCB compounds following the dosing regimen for each individual experiment (n=5) as indicated. Compounds were administered in a mixture containing Cremophor EL: EtOH: D-PBS (30:10:60 v/v). Animals were monitored for up to 8 hours post-dosing. On the final day of dosing, 2 hours after the final dose, whole blood was harvested from three mice via cardiac puncture, under gaseous isoflurane anaesthesia, to obtain plasma for analyses. The remaining two mice were monitored for several days post dosing. To avoid coagulation, 100 μl of 2% sodium citrate was utilised in the syringe during the procedure and blood samples subsequently transferred to heparin coated microtubules. Blood samples were centrifuged at 800 x g for 10 minutes at room temperature. The supernatant containing the plasma was transferred to a fresh tube for determination of compound levels and further PK analysis.
# [7] = female, CD-1, plasma, mouse, PO 5 mg kg^−1
smiles,measurement,setting,value
"CN(C)CCn1ccc2c(ccn2Cc2ccc(Cl)c(Cl)c2)c1=O [CTCB-405, 1-[(3,4-Dichlorophenyl)methyl]-5-[2-(dimethylamino)ethyl] pyrrolo[3,2-c]pyridin-4-one]",Selectivity,HepG2 cells; EC50 HepG2 divided by EC50 T. b. brucei parasite killing,56
same,EC50,"HepG2 cells; Homo sapiens, HepG2, 72 h, CellTitreGlo",20.8 µM
same,microsomal CLint at 5 µM,[1],70 µL/min/mg
same,microsomal CLint at 5 µM,[2],< 8.6 µL/min/mg
same,IC50,Human hERG,3.98 µM
same,"fraction unbound at 4 h, 10 µM",[3],0.063
same,"fraction unbound at 4 h, 10 µM","[4]; 10 µM, equilibrium dialysis, read-out: Mouse plasma protein binding fu(%)",0.058
same,"fraction unbound at 4 h, 10 µM","[4]; percentage bound, read-out: mouse plasma protein binding value (converted)",0.06
same,"Plasma concentration, individual animal","[5]; 1 mg/kg IV bolus, mouse (female, CD-1), 0.08 h",0.415 µM and 0.386 µM and 140.6 ng/ml and 135.9 ng/ml
same,"Plasma concentration, individual animal","[5]; 1 mg/kg IV bolus, mouse (female, CD-1), 0.25 h",0.37 µM and 0.489 µM and 178.1 ng/ml and 108.2 ng/ml
same,"Plasma concentration, individual animal","[5]; 1 mg/kg IV bolus, mouse (female, CD-1), 0.5 h",0.118 µM and 0.159 µM and 57.9 ng/ml and 49.5 ng/ml
same,"Plasma concentration, individual animal","[5]; 1 mg/kg IV bolus, mouse (female, CD-1), 2 h",0.049 µM and 0.069 µM and 0.109 µM and 25.1 ng/ml and 39.7 ng/ml and 17.8 ng/ml
same,"Plasma concentration, individual animal","[5]; 1 mg/kg IV bolus, mouse (female, CD-1), 4 h",0.042 µM and 0.015 µM and 0.019 µM and 5.5 ng/ml and 6.9 ng/ml and 15.3 ng/ml
same,"Plasma concentration, individual animal","[5]; 1 mg/kg IV bolus, mouse (female, CD-1), 8 h",0.011 µM and 4.0 ng/ml
same,"Plasma concentration, individual animal","[5]; 5 mg/kg oral dose (PO), mouse (female, CD-1), 0.25 h",279.4 ng/ml and 164.7 ng/ml and 0.767 µM and 0.452 µM
same,"Plasma concentration, individual animal","[5]; 5 mg/kg oral dose (PO), mouse (female, CD-1), 0.5 h",77.6 ng/ml and 126.4 ng/ml and 0.213 µM and 0.347 µM
same,"Plasma concentration, individual animal","[5]; 5 mg/kg oral dose (PO), mouse (female, CD-1), 1 h",129.3 ng/ml and 229.9 ng/ml and 100.9 ng/ml and 0.355 µM and 0.631 µM and 0.277 µM
same,"Plasma concentration, individual animal","[5]; 5 mg/kg oral dose (PO), mouse (female, CD-1), 2 h",177.4 ng/ml and 144.3 ng/ml and 303.4 ng/ml and 0.487 µM and 0.396 µM and 0.833 µM
same,"Plasma concentration, individual animal","[5]; 5 mg/kg oral dose (PO), mouse (female, CD-1), 4 h",88.9 ng/ml and 83.8 ng/ml and 0.244 µM and 0.23 µM
same,"Plasma concentration, individual animal","[5]; 5 mg/kg oral dose (PO), mouse (female, CD-1), 8 h",9.1 ng/ml and 0.025 µM
same,concentration at 0.08 h,"[5]; female, CD-1, mouse, plasma, intravenous, 1 mg/kg, 1 mg/kg IV bolus, mouse (female, CD-1), 0.08 h, read-out: Plasma concentration, Mean",143 ng/mL and 391 nM
same,concentration at 0.08 h,"[5]; female, CD-1, mouse, plasma, intravenous, 1 mg/kg, 1 mg/kg IV bolus, mouse (female, CD-1), 0.08 h, read-out: Plasma concentration, individual animal",373 nM and 151 ng/mL
same,concentration at 0.25 h,"[5]; female, CD-1, mouse, plasma, intravenous, 1 mg/kg, 1 mg/kg IV bolus, mouse (female, CD-1), 0.25 h, read-out: Plasma concentration, Mean",140 ng/mL and 385 nM
same,concentration at 0.25 h,"[5]; female, CD-1, mouse, plasma, intravenous, 1 mg/kg, 1 mg/kg IV bolus, mouse (female, CD-1), 0.25 h, read-out: Plasma concentration, individual animal",297 nM and 135 ng/mL
same,concentration at 0.5 h,"[5]; female, CD-1, mouse, plasma, intravenous, 1 mg/kg, 1 mg/kg IV bolus, mouse (female, CD-1), 0.5 h, read-out: Plasma concentration, Mean",50.1 ng/mL and 138 nM
same,concentration at 0.5 h,"[5]; female, CD-1, mouse, plasma, intravenous, 1 mg/kg, 1 mg/kg IV bolus, mouse (female, CD-1), 0.5 h, read-out: Plasma concentration, individual animal",136 nM and 43 ng/mL
same,concentration at 2 h,"[5]; female, CD-1, mouse, plasma, intravenous, 1 mg/kg, 1 mg/kg IV bolus, mouse (female, CD-1), 2 h",27.6 ng/mL and 75.7 nM
same,concentration at 4 h,"[5]; female, CD-1, mouse, plasma, intravenous, 1 mg/kg, 1 mg/kg IV bolus, mouse (female, CD-1), 4 h, read-out: Plasma concentration, Mean",9.23 ng/mL and 25.3 nM
same,concentration at 8 h,"[5]; female, CD-1, mouse, plasma, intravenous, 1 mg/kg, 1 mg/kg IV bolus, mouse (female, CD-1), 8 h, read-out: Plasma concentration, Mean",3.28 ng/mL and 9 nM
same,concentration at 8 h,"[5]; female, CD-1, mouse, plasma, intravenous, 1 mg/kg, 1 mg/kg IV bolus, mouse (female, CD-1), 8 h, read-out: Plasma concentration, individual animal",7 nM and 2.5 ng/mL
same,concentration at 0.25 h,"[5]; female, CD-1, mouse, plasma, oral, 5 mg/kg, 5 mg/kg oral dose (PO), mouse (female, CD-1), 0.25 h, read-out: Plasma concentration, Mean",200 ng/mL and 548 nM
same,concentration at 0.25 h,"[5]; female, CD-1, mouse, plasma, oral, 5 mg/kg, 5 mg/kg oral dose (PO), mouse (female, CD-1), 0.25 h, read-out: Plasma concentration, individual animal",155 ng/mL and 426 nM
same,concentration at 0.5 h,"[5]; female, CD-1, mouse, plasma, oral, 5 mg/kg, 5 mg/kg oral dose (PO), mouse (female, CD-1), 0.5 h, read-out: Plasma concentration, Mean",103 ng/mL and 283 nM
same,concentration at 0.5 h,"[5]; female, CD-1, mouse, plasma, oral, 5 mg/kg, 5 mg/kg oral dose (PO), mouse (female, CD-1), 0.5 h, read-out: Plasma concentration, individual animal",105 ng/mL and 288 nM
same,concentration at 1 h,"[5]; female, CD-1, mouse, plasma, oral, 5 mg/kg, 5 mg/kg oral dose (PO), mouse (female, CD-1), 1 h",153 ng/mL and 421 nM
same,concentration at 2 h,"[5]; female, CD-1, mouse, plasma, oral, 5 mg/kg, 5 mg/kg oral dose (PO), mouse (female, CD-1), 2 h",208 ng/mL and 572 nM
same,concentration at 4 h,"[5]; female, CD-1, mouse, plasma, oral, 5 mg/kg, 5 mg/kg oral dose (PO), mouse (female, CD-1), 4 h, read-out: Plasma concentration, Mean",89 ng/mL and 244 nM
same,concentration at 4 h,"[5]; female, CD-1, mouse, plasma, oral, 5 mg/kg, 5 mg/kg oral dose (PO), mouse (female, CD-1), 4 h, read-out: Plasma concentration, individual animal",94.3 ng/mL and 259 nM
same,concentration at 8 h,"[5]; female, CD-1, mouse, plasma, oral, 5 mg/kg, 5 mg/kg oral dose (PO), mouse (female, CD-1), 8 h, read-out: Plasma concentration, Mean",8.2 ng/mL and 22.5 nM
same,concentration at 8 h,"[5]; female, CD-1, mouse, plasma, oral, 5 mg/kg, 5 mg/kg oral dose (PO), mouse (female, CD-1), 8 h, read-out: Plasma concentration, individual animal",7.3 ng/mL and 20 nM
same,AUC(0-inf),"[5]; female, CD-1, plasma, mouse, IV 1 mg kg^−1",260 ng·h/mL
same,clearance,"[5]; female, CD-1, plasma, mouse, IV 1 mg kg^−1, read-out: CL/kg (converted)",63.3 mL/min/kg
same,half-life,"[5]; female, CD-1, plasma, mouse, IV 1 mg kg^−1, read-out: Elimination t1/2 (converted)",2.7 h
same,Vd,"[5]; female, CD-1, plasma, mouse, IV 1 mg kg^−1, read-out: Vd (area)",12.3 L/kg
same,Cmax,[5]; [7],206 ng/mL
same,Tmax,[5]; [7],0.3 h
same,AUC(0-inf),[5]; [7],704 ng·h/mL
same,bioavailability,"[5]; female, CD-1, plasma, mouse, PO 5 mg kg^−1 vs IV 1 mg kg^−1, read-out: Bioavailability (F%)",54%
same,Experimental plasma concentration measured @2hr after final dose,[6]; 3 x 50 mg/kg oral,6.8 ± 2.1 µM
same,Experimental plasma concentration measured @2hr after final dose,[6]; 3 x 100 mg/kg oral,9.8 ± 3.1 µM
same,tolerance of high doses,"[6]; mice, oral",well tolerated
same,plasma levels,[6]; three doses at 100 mg kg^−1 given on two consecutive days,9.8 µM
same,autopsied livers,[6]; up to 300 mg kg^−1 per day,appeared normal
same,apparent toxicity,"[6]; up to 300 mg kg^−1 per day, cumulative dosing tolerance studies",no apparent toxicity
